In patent publication USRE39197E1, “Cell adhesion-inhibiting antiinflammatory and immune-suppressive compounds” (Abbott Laboratories, priority 1998, dated 2006):

Columns and labels:
[1] = tested on: adherence of JY-8 cells (expressing LFA-1) to immobilized ICAM-1; experiment: ICAM-1/JY-8 Cell Adhesion Assay; type: cell-based, human
Description: ICAM-1/JT-8 Cell Adhesion Assay
For measurment measurement of inhibotory inhibitory activity in the cell-based adhesion assay, 96-well microtiter plates are were coated with 70 μL of recombinat recombinant ICAM-1/Ig (ICOS Corporation) at a concentration of 5 μg/mL in D-PBS w/o without Ca^++ or Mg++ or Mg^++ overnight at 4° C. The wells are were then washed twice with D-PBS and blocked by addition of 200 μL of D-PBS, 5% fish skin gelatin by incubation for 1 hour at room temperature. […] The percent inhibition of a candidate compound at a given concentration is was calculated using the following equation: [formula] and these concentration/inhibition data are were used to generate does response curves, from which IC50 values are were derived.

[2] = biological target: T1, interaction between the integrin LFA-1 and its adhesion partner ICAM-1 (Homo sapiens, UniProt P20701); experiment: ICAM-1/LFA-1 Biochemical Interaction Assay; type: binding; details: 4 μM compound; recombinant LFA-1, biotinylated ICAM-1/Ig
T1 construct: Recombinant LFA-1 (100 μL of 0.7 μg/ml mL, ICOS Corporation) in D-PBS; purchased ICOS Corporation
Description: Compounds that antagonize the interaction between ICAM-1 and LFA-1 can be identified, and their activities quantitated, using both biochemical and cell-based adhesion assays. A primary biochemical assay measures the ability of the compound in question to block the interaction between the integrin LFA-1 and its adhesion partner ICAM-1, as described below:
ICAM-1/LFA-1 Biochemical Interaction Assay
In the biochemical assay, 100 μL of anti-LFA-1 antibody (ICOS Corporation) at a concentration of 5 μg/ml mL in Dulbecco's phosphate-buffered saaline (D-PBS) is used to coat wells of a 96-well microtiter plate overnight at 4° C. The wells are were then washed twice with wash buffer (D-PBS w/o Ca^++ or Mg^++, 0.05% Tween 20) and blocked by addition of 200 μL of D-PBS, 5% fish skin gelatin. Recombinant LFA-1 (100 μL of 0.7 μg/ml mL, ICOS Corporation) in D-PBS is was then added to each well. Incubation continues continued for 1 hour at room temperature and the wells are were washed twice with wash buffer. Serial dilutions of compounds being assayed as ICAM-1/LFA-1 antagonists, were prepared as 10 mM stock solutions in dimethyl sulfoxide (DMSO), are were diluted in D-PBS, 2 mM MgCl2, 1% fish skin gelatin and 50 μL of each dilution was added to duplicate wells. This is was followed by the addition of 50 μL of 0.8 μg/ml mL biotinylated recombinant ICAM-1/Ig (ICOS Corporation) to the wells and the plates are were incubated at room temperature for 1 hour. The wells are were then washed twice with wash buffer and 100 μL of Europium-labeled Streptavidin (Wallac Oy) diluted 1:100 in Delfia assay buffer (Wallac Oy), are was then added to the wells. Incubation proceeds proceeded for 1 hour at room temperature. The wells are were washed eight times with wash buffer and 100 μL of enhancement solution (Wallac Oy, cat. No. 1244-105) are was added to each well. Incubation proceeds proceeded for 5 minutes with constant mixing. Time-resolved fluorimetry measurements are were made using the a Victor 1420 Multilabel Counter (Wallac Oy) and the percent inhibition of each candidate compound is was calculated using the following equation: [formula] where “background” refers to wells that are were not coated with anti-LFA-1 antibody.

[3] = Homo sapiens, JY-8, JY-8 cells on immobilized ICAM-1/Ig
[4] = JY-8 cells on immobilized ICAM-1/Ig

T1 sequence (P20701 26-1170): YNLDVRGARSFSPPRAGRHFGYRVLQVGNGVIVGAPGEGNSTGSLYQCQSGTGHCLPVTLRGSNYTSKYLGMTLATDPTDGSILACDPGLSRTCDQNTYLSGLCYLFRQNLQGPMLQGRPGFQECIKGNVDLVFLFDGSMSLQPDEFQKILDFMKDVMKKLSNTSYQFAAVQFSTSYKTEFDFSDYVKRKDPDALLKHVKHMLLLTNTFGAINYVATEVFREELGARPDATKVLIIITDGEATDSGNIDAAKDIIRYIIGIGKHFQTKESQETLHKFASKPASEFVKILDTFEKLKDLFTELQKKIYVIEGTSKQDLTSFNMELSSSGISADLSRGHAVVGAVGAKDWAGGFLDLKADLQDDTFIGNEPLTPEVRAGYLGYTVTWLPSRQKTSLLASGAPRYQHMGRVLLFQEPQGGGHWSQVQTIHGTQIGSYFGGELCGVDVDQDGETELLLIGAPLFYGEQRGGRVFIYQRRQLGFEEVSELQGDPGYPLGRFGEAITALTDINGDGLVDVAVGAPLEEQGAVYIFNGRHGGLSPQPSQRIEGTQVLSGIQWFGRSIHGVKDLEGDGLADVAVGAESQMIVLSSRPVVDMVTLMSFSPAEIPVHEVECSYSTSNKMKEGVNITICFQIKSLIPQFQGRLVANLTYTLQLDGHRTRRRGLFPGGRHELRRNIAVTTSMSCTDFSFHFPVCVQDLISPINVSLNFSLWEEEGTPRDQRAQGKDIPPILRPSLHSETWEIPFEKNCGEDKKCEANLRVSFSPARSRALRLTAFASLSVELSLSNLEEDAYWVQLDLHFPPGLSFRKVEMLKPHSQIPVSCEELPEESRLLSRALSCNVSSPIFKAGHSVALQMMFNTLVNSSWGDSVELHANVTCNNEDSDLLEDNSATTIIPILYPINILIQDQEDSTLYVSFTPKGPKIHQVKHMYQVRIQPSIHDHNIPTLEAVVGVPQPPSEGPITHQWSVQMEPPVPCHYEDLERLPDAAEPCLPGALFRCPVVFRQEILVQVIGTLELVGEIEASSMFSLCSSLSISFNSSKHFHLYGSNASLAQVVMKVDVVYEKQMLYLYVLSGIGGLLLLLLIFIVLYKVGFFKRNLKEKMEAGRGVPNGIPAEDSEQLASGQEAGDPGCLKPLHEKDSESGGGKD
T1 sequence (P05107 23-769 partner): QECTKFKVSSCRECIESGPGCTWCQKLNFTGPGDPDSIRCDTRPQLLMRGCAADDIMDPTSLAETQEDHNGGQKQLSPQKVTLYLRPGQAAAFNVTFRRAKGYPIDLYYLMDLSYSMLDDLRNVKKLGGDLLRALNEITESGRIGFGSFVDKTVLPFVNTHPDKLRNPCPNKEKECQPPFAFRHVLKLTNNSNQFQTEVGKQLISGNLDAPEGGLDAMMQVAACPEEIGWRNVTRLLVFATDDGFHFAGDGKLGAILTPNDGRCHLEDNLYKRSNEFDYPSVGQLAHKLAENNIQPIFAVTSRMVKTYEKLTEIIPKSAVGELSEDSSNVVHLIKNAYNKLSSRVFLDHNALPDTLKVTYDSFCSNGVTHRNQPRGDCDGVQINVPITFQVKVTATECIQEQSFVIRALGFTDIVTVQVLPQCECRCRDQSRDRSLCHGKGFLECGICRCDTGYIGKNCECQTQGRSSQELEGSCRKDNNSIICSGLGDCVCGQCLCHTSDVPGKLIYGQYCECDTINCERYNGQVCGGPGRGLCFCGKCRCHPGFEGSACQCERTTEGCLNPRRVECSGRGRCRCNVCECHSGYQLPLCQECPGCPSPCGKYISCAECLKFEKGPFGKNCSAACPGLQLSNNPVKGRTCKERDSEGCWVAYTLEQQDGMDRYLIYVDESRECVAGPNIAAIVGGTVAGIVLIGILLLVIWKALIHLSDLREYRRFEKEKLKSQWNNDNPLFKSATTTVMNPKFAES

| IC50 [1, 3] [nM] | inhibition at 4 µM [2] [%] | IC50 [1, 4] [nM] | % inhibition @ 4 μM [2] [%] | SMILES |
| --- | --- | --- | --- | --- |
| – | – | 1200 | 87 | O=C(/C=C/c1ccc(Sc2ccc(Cl)cc2Cl)c(Cl)c1)N1CCOCC1 [Example 7, (2,4-Dichlorophenyl)[2-chloro-4-(E-((1-morpholinyl)carbonyl)ethenyl)phenyl]sulfide] |
| 2900 | 74 | – | – | CN1CCN(C(=O)/C=C/c2ccc(Sc3ccc(Cl)cc3Cl)c(Cl)c2)CC1 [Example 8, (2,4-Dichlorophenyl)[2-chloro-4-(E-((4-methylpiperazin-1-yl)carbonyl)ethenyl)phenyl]sulfide] |
| 1500 | – | – | – | O=C(/C=C/c1ccc(Sc2ccc(Cl)cc2Cl)c(Cl)c1)N1CCN(c2ccccn2)CC1 [Example 10, (2,4-Dichlorophenyl)[2-chloro-4-(E-((4-(2-pyridyl)piperazin-1-yl)carbonyl)ethenyl)phenyl]sulfide] |
| – | – | 1100 | 79 | O=C(/C=C/c1ccc(Sc2ccc(Cl)cc2Cl)c(Cl)c1)N1CCN(CCO)CC1 [Example 13] |
| – | – | 790 | 82 | O=C(/C=C/c1ccc(Sc2ccc(Cl)cc2Cl)c(Cl)c1)N1CCN(CCOCCO)CC1 [Example 14] |
| 3300 | 82 | – | – | O=C(O)C1CCCN(C(=O)/C=C/c2ccc(Sc3ccc(Cl)cc3Cl)c(Cl)c2)C1 (stereo not shown) [Example 20, (2,4-Dichlorophenyl)[2-chloro-4-(E-((3-carboxypiperidin-1-yl)carbonyl)ethenyl)phenyl]sulfide] |
| 520 | 80 | – | – | O=C(O)C1CCN(C(=O)/C=C/c2ccc(Sc3ccc(Cl)cc3Cl)c(Cl)c2)CC1 [Example 21, (2,4-Dichlorophenyl)[2-chloro-4-(E-((4-carboxypiperidin-1-yl)carbonyl)ethenyl)phenyl]sulfide] |
| – | – | – | 81 | O=C(/C=C/c1ccc(Sc2ccc(Cl)cc2Cl)c(Br)c1)N1CCOCC1 [Example 64, (2,4-Dichlorophenyl)[2-bromo-4-(E-((1-morpholinyl)carbonyl)ethenyl)phenyl]sulfide] |

More lines, now with the values behind:

| SMILES | IC50 [1, 3] [nM] | inhibition at 4 µM [2] [%] | IC50 [1, 4] [nM] | % inhibition @ 4 μM [2] [%] |
| --- | --- | --- | --- | --- |
| O=C(/C=C/c1ccccc1Sc1ccc(Cl)cc1Cl)NCCCCCCO [Example 1, (2,4-Dichlorophenyl)[2-(E-((6-hydroxyhexylamino)carbonyl)ethenyl)phenyl]sulfide] | 2100 | 75 | – | – |
| O=C(/C=C/c1ccccc1Sc1ccc(Cl)cc1Cl)NCCCn1ccnc1 [Example 2, (2,4-Dichlorophenyl)[2-(E-((3-(1-imidazolyl)propylamino)carbonyl)ethenyl)phenyl]sulfide] | 13000 | – | – | – |
| O=C(/C=C/c1ccc(Sc2ccc(Cl)cc2Cl)c(Cl)c1)NCCO [Example 3, (2,4-Dichlorophenyl)[2-chloro-4-(E-((2-hydroxyethylamino)carbonyl)ethenyl)phenyl]sulfide] | 2500 | 75 | – | – |
| O=C(/C=C/c1ccc(Sc2ccc(Cl)cc2Cl)c(Cl)c1)NCCCCCCO [Example 4, (2,4-Dichlorophenyl)[2-chloro-4-(E-((6-hydroxyhexylamino)carbonyl)ethenyl)phenyl]sulfide] | 680 | – | – | – |
| O=C(/C=C/c1ccc(Sc2ccc(Cl)cc2Cl)c(Cl)c1)N(CCO)CCO [Example 5, (2,4-Dichlorophenyl)[2-chloro-4-(E-((bis-(2-hydroxyethyl)amino)carbonyl)ethenyl)phenyl]sulfide] | 2900 | 73 | – | – |
| O=C(/C=C/c1ccc(Sc2ccc(Cl)cc2Cl)c(Cl)c1)NCCCN1CCCC1=O [Example 6, (2,4-Dichlorophenyl)[2-chloro-4-(E-((3-(2-oxopyrrolidin-1-yl)propylamino)carbonyl)ethenyl)phenyl]sulfide] | 660 | 85 | – | – |
| O=C(/C=C/c1ccc(Sc2ccccc2CO)c(Cl)c1)N1CCOCC1 [Example 11, (2-(Hydroxymethyl)phenyl)[2-chloro-4-(E-((1-morpholinyl)carbonyl)ethenyl)phenyl]sulfide] | – | – | 260 | 87 |
| O=C(/C=C/c1ccc(Sc2ccccc2Br)c(Cl)c1)N1CCCCC1 [Example 19] | – | – | 450 | 93 |
| CC(=O)N1CCCN(C(=O)/C=C/c2ccc(Sc3ccccc3Br)c(Cl)c2)CC1 [Example 22, (2-Bromophenyl)[2-chloro-4-(E-((4-acetylhomopiperazin-1-yl)carbonyl)ethenyl)phenyl]sulfide] | 200 | 90 | – | – |
| O=C(/C=C/c1ccc(Sc2ccccc2Br)c(Cl)c1)N1CCC(n2c(=O)[nH]c3ccccc32)CC1 [Example 24] | – | – | 8000 | 80 |
| O=C(/C=C/c1ccc(Sc2ccccc2Br)c(Cl)c1)N1CCc2ccccc2C1 [Example 25, (2-Bromophenyl)[2-chloro-4-(E-((2-tetrahydroisoquinolinyl)carbonyl)ethenyl)phenyl]sulfide] | – | – | 11000 | 82 |
| Cc1ccccc1Sc1ccc(/C=C/C(=O)NCCN2CCOCC2)cc1C(F)(F)F [Example 28, (2-Methylphenyl)[2-trifluoromethyl-4-(E-((2-(1-morpholinyl)ethylamino)carbonyl)ethenyl)phenyl]sulfide] | – | – | 370 | 87 |
| Cc1ccccc1Sc1ccc(/C=C/C(=O)N2CCN(c3ccccc3)CC2)cc1C(F)(F)F [Example 29, (2-Methylphenyl)[2-trifluoromethyl-4-(E-((4-phenylpiperazin-1-yl)carbonyl)ethenyl)phenyl]sulfide] | 160 | 84 | – | – |
| Cc1ccccc1Sc1ccc(/C=C/C(=O)NC2CC2)cc1C(F)(F)F [Example 31, (2-Methylphenyl)[2-trifluoromethyl-4-(E-((cyclopropylamino)carbonyl)ethenyl)phenyl]sulfide] | – | 92 | – | – |
| O=C(/C=C/c1ccc(Sc2ccc(Cl)cc2Cl)c([N+](=O)[O-])c1)NCCCN1CCCC1=O [Example 33, (2,4-Dichlorophenyl)[2-nitro-4-(E-((3-(2-oxopyrrolidin-1-yl)propylamino)carbonyl)ethenyl)phenyl]sulfide] | 300 | – | – | – |
| CC(=O)N1CCN(C(=O)/C=C/c2ccc(Sc3ccc(C)cc3)c([N+](=O)[O-])c2)CC1 [Example 36, (4-Methylphenyl)[2-nitro-4-(E-((4-acetylpiperazin-1-yl)carbonyl)ethenyl)phenyl]sulfide] | 320 | 90 | – | – |
| CC(C)(C)OC(=O)N1CCN(C(=O)/C=C/c2ccc(Sc3ccc(Cl)cc3Cl)c([N+](=O)[O-])c2)CC1 [Example 37, (2,4-Dichlorophenyl)[2-nitro-4-(E-((4-(tert-butoxycarbonyl)piperazin-1-yl)carbonyl)ethenyl)phenyl]sulfide] | 140 | 91 | – | – |
| O=C(/C=C/c1ccc(Sc2ccccc2CN2CCOCC2)c(Cl)c1)N1CCOCC1 [Example 53, (2-(1-Morpholinylmethyl)phenyl)[2-chloro-4-(E-((1-morpholinyl)carbonyl)ethenyl)phenyl]sulfide] | – | – | 700 | – |
| O=CN1CCN(Cc2ccccc2Sc2ccc(/C=C/C(=O)N3CCOCC3)cc2Cl)CC1 [Example 58, (2-(4-Formylpiperazin-1-ylmethyl)phenyl)[2-chloro-4-(E-((1-morpholinyl)carbonyl)ethenyl)phenyl]sulfide] | – | – | 1600 | – |
